Tests used:
Type in all cases: cell-based, human
healthy B cells = assay: Viability of healthy B cells from healthy donors by DiOC6(3)/PI staining; details: 200 nM, 24 hours; PBMCs from healthy donors (n = 20); Figure 1F
Experimental: Cell viability and apoptosis were evaluated by double-staining with the mitochondrial inner transmembrane potential (ΔΨm)-sensitive dye DiOC6(3) (3,3'-dihexyloxacarbocyanine iodide; Sigma-Aldrich) and the exclusion dye propidium iodide (PI; Immunostep), allowing identification of apoptotic [DiOC6(3)^low PI^-] and dead [PI^+] cells as per Proc. Natl. Acad. Sci. U.S.A. (2014) 111(8):3020-3025 and Methods Mol. Biol. (2016) 1419:1-16. Briefly, PBMCs were resuspended in culture medium containing 20 nM DiOC6(3) and incubated for 30 minutes at 37 °C. Then, PI (1 µg/mL) was added and cells were further incubated for 10 minutes at room temperature (RT). Cells were analyzed by flow cytometry considering DiOC6(3)^+PI^- cells as viable. In some experiments, apoptosis was evaluated by staining with Annexin V/PI. […]
The in vitro cytotoxic activity of EC-7072 against primary CLL cells was assessed by: • (i) incubating PBMCs isolated from patients with CLL (n = 13) following treatment with increasing concentrations of EC-7072 (0 - 400 nM) for 24 hours. Numbers of leukemia cells were evaluated by flow cytometry and normalized to their respective control (DMSO) condition for each individual patient to obtain percentage of leukemia cells (Figure 1A); • (ii) incubating PBMCs from patients with CLL (n = 10) with or without EC-7072 (100-400 nM) for 24 hours. […]

T cells (CD3^+CD56^-) = assay: T cell numbers, viability and apoptosis in PBMCs (flow cytometry, DiOC6(3)/PI staining)
Experimental: (§1) To evaluate absolute cell numbers, an equal volume of PKH26 reference microbeads (Sigma-Aldrich) was added to each sample after staining for immune subset identification. Microbeads (5x10^3) were acquired by flow cytometry and absolute numbers of each immune population within the sample were calculated. Normalized percentage values were calculated considering the control (DMSO)-treated cells as 100%.
(§2) Cell viability and apoptosis were evaluated by double-staining with the mitochondrial inner transmembrane potential (ΔΨm)-sensitive dye DiOC6(3) (3,3'-dihexyloxacarbocyanine iodide; Sigma-Aldrich) and the exclusion dye propidium iodide (PI; Immunostep), allowing identification of apoptotic [DiOC6(3)^low PI^-] and dead [PI^+] cells as per Proc. Natl. Acad. Sci. U.S.A. (2014) 111(8):3020-3025 and Methods Mol. Biol. (2016) 1419:1-16. Briefly, PBMCs were resuspended in culture medium containing 20 nM DiOC6(3) and incubated for 30 minutes at 37 °C. Then, PI (1 µg/mL) was added and cells were further incubated for 10 minutes at room temperature (RT). Cells were analyzed by flow cytometry considering DiOC6(3)^+PI^- cells as viable. In some experiments, apoptosis was evaluated by staining with Annexin V/PI. Thus, PBMCs were incubated in Annexin V binding buffer containing 5 µg/mL Annexin V-FITC (Biolegend) for 15 minutes at RT and PI (1 µg/mL) was subsequently added. Data were normalized to the untreated control as a percentage. Only samples with at least 60% of viable cells (DiOC6(3)^+; Annexin V^-) in the control (DMSO) condition were employed in this study.
(§3) The effect of EC-7072 toward healthy immune subsets, T lymphocytes and natural killer (NK) cells, which are chronically exposed to leukemia cells in the peripheral blood of patients with CLL was assessed by: • (i) incubating PBMCs isolated from patients with CLL (n = 10) following treatment with increasing concentrations of EC-7072 (0 - 400 nM) for 24 hours. Numbers of T cells (CD3^+CD56^-) (Figure 2A) and NK cells (CD3^-CD56^+) (Figure 2B) were evaluated by flow cytometry and normalized to their respective control (DMSO) condition for each individual patient to obtain percentage of relative number of T cells and NK cells, respectively; • (ii) incubating PBMCs isolated from patients with CLL (n = 6 - 10) following treatment with increasing concentrations of EC-7072 (0 - 400 nM) for 24 hours. Viability of immune subsets (leukemia cells, T cells and NK cells) was determined by cytofluorometric assessment of DiOC6(3)/PI staining and normalized to their respective control (DMSO) condition for each individual patient to obtain percentage of viable [DiOC6(3)^+] cells (Figures 2C and 2D); • (iii) incubating PBMCs isolated from patients with CLL (n = 11) following treatment with DMSO or EC-7072 (200 nM) for 24 hours. Numbers of CD4^+ cells (Figure 2E) and CD8^+ T cells (Figure 2F) were evaluated by flow cytometry and normalized to their respective control (DMSO) condition for each individual experiment; • (iv) incubating PBMCs isolated from healthy donors (n = 15) following treatment with EC-7072 (200 nM) for 24 hours. […]

NK cells (CD3^-CD56^+) = assay: NK cell numbers, viability and apoptosis in PBMCs (flow cytometry, DiOC6(3)/PI staining)
Experimental: as §1, §2, §3

[1] = 200 nM, 24 hours, PBMCs from healthy donors (n = 15), compared with PBMCs from patients with CLL
[2] = EC-7072 200 nM 24 hours vs fludarabine 10 µM 24 hours, PBMCs from patients with CLL (n = 6 - 8), Figure 4F

Structure (SMILES): CO[C@@H]([C@@H]1Cc2cc3cc(O[C@H]4C[C@@H](O[C@H]5C[C@@H](O)[C@H](O)[C@@H](C)O5)[C@H](O)[C@@H](C)O4)c(C)c(O)c3c(O)c2C(=O)[C@H]1O[C@H]1C[C@@H](O[C@H]2C[C@@H](O[C@H]3C[C@](C)(O)[C@H](O)[C@@H](C)O3)[C@@H](O)[C@@H](C)O2)[C@H](O)[C@@H](C)O1)[C@@H](O)C(C)=O [EC-7072, mithramycin SK]
- viability of healthy B cells (healthy B cells): triggered death of normal B cells
- T cell numbers and viability (T cells (CD3^+CD56^-); 0 - 400 nM, 24 hours, PBMCs from patients with CLL): negligible effects
- ratio of apoptosis to cell death in T cells (T cells (CD3^+CD56^-); 200 nM, 24 hours, PBMCs from healthy donors (n = 4), Figure 2Q): comparable to that induced by EC-7073
- viability of T cells, comparison of mithralogs (T cells (CD3^+CD56^-); 200 nM, 24 hours, PBMCs from healthy donors (n = 10), Figure 2N): not exhibit toxicity
- cell numbers and viability of T lymphocytes (T cells (CD3^+CD56^-); [1]): comparable effects
- toxicity against T cells compared with fludarabine (T cells (CD3^+CD56^-); [2]): significantly less toxic than fludarabine
- ratio of apoptosis in NK cells relative to NK cell death (NK cells (CD3^-CD56^+); 200 nM, 24 hours, PBMCs from healthy donors (n = 4), Figure 2R): far lower ratio of apoptosis in NK cells relative to NK cell death than does EC-7073
- viability of NK cells, comparison of mithralogs (NK cells (CD3^-CD56^+); 200 nM, 24 hours, PBMCs from healthy donors (n = 10), Figure 2O): not exhibit toxicity
- cell numbers and viability of NK cells (NK cells (CD3^-CD56^+); [1]): comparable effects
- NK cell survival (NK cells (CD3^-CD56^+); 200 nM, 24 hours, PBMCs from patients with CLL): only slightly altered
- toxicity against NK cells compared with fludarabine (NK cells (CD3^-CD56^+); [2]): significantly less toxic than fludarabine
- toxicity against NK cells compared with leukemia cells (NK cells (CD3^-CD56^+); high doses (400 nM), 24 hours, PBMCs from patients with CLL): significantly less toxic against NK cells than leukemia cells
